Where “and” joins values, the source holds several entries; their conditions need not be identical. Equal values may be shown once. Ends that are not written are not given here. HPMA copolymer = HPMA copolymer made by RAFT copolymerization of HPMA with N-(3-aminopropyl)methacrylamide (APMA), bearing maleimide groups for grafting
Tests used:
[1] = tested on: orthotopic 4T1 breast tumors; assay: Spontaneous lung metastasis model: tumor volume and pulmonary metastatic nodules; assay type: in vivo, female BALB/c mice; details: for Number of metastatic nodules: Fig. 5e, pulmonary
Method: For the in vivo investigation of pulmonary metastasis, 4T1 cells (1 × 10^6 cells) were injected into the third mammary fat pad of female BALB/c mice (6–8 weeks). […] Tumor volumes were recorded every other day. On day 28, lungs were harvested and fixed with Bouin’s solutions. The pulmonary metastatic nodules were counted and analyzed by hematoxylin-eosin staining.

4T1 cells [2] = assay: Transwell invasion assay (matrigel); assay type: cell-based, murine
Method: (§1) Wound healing assay and transwell migration and invasion assay were conducted to investigate in vitro metastasis inhibition. For the wound healing assay, 4T1 cells (5 × 10^5 cells) were cultured in 12-well plates (NEST Biotechnology) as monolayer with more than 90% coverage. Sterile 200 μL pipette tips were used to scrape off the cells, generating a linear cell-free area in the middle of the well. Subsequently, cells were washed by PBS to remove debris. In the stimulated group, 4T1 cells were stimulated with CXCL12 (100 ng/mL) for 1 h. […] In the P-BS-CM1 → P-CM2 group, 4T1 cells underwent consecutive treatment with P-BS-CM1 for 1 h and P-CM2 for 1 h before CXCL12 stimulation (1 mg/mL BS equivalence, CM1:CM2, 1:1 mol%). Images of the wound were recorded by a microscope at 0 h and 24 h after CXCL12 stimulation, and the wound healing rate was calculated using Image J software. For the transwell migration and invasion assay, 4T1 cells (5 × 10^5 cells) were seeded in the non-coated upper chamber (Millipore, 8 μm) or GelNest™ matrigel (NEST Biotechnology) pre-coated upper chamber. The cells underwent the same treatment conditions as wound healing assay. After 24 h of treatment, migrated or invaded cells across the membrane were stained with 0.1% crystal violet, imaged by microscope, and quantified by absorbance at 570 nm after dissolution.

[3] = tested on: pulmonary CD11b+Gr1+ BMDCs; assay: Pulmonary BMDCs (CD11b+Gr1+) by flow cytometry; assay type: in vivo, female BALB/c mice
Method: 4T1 cells (1 × 10^6 cells) were injected into the third mammary fat pad of female BALB/c mice (6–8-week). […] On day 28, blood samples, lungs and tumors were harvested.
To explore the “seed-soil” crosstalk, the serum, intra-tumoral, and pulmonary concentration of LOX was determined using enzyme-linked immunosorbent assay kits (CSB-EL013041MO, CUSABIO, https://www.cusabio.com/) according to the manufacturer’s instructions. The serum, intra-tumoral, and pulmonary concentration of TGF-β was determined using mouse TGF-β ELISA Kit (Cat No.: HB1328-Mu). The formation of PMN was investigated through lung slices subjected to immunofluorescent staining of LOX, E-cadherin, and S100A8. For immunofluorescent staining of E-cadherin, Lung slices were stained with CoraLite® Plus 647 anti-mouse CD324 (E-cadherin, 1:300 dilution). For immunofluorescent staining of LOX and S100A8, Lung slices were separately stained with anti-LOX recombinant rabbit monoclonal antibody (1:500 dilution) or S100-A8 / MRP8 rabbit pAb (1:500 dilution), followed by staining with goat anti-rabbit IgG H&L Alexa Fluor® 647 (1:1000 dilution), respectively. Single-cell suspensions of lungs were analyzed using flow cytometry to assess BMDC (CD11b^+Gr1^+) with PE anti-mouse/human CD11b antibody (1:300 dilution) and FITC anti-mouse Ly-6G/Ly-6C (Gr-1) antibody (1:300 dilution). Chemokine concentrations in lungs were determined using a mouse CXCL12 ELISA kit.

4T1 cells [4] = assay: Transwell migration assay; assay type: cell-based, murine; details: stimulated 4T1 cells; individual replicates, n = 3
Method: as §1

[5] = Hydrodynamic size / size distribution by dynamic light scattering; assay type: physicochemical; details: Malvern Zetasizer Nano ZS90, mean ± SD
[6] = i.v. days 7, 14, 21 (5 mg/kg BS equivalence; P-CM2 24 h later), analysis day 28, mouse 1 of 5

Substance | Number of metastatic nodules ([1]; mouse 1) | Number of metastatic nodules ([1]; mouse 2) | Number of metastatic nodules ([1]; mouse 3) | Number of metastatic nodules ([1]; mouse 4) | Number of metastatic nodules ([1]; mouse 5) | lung metastatic nodule burden at endpoint ([1]; three weekly i.v. cycles, day 28) | Invasion content (%) (4T1 cells [2]; replicate 1) | Invasion content (%) (4T1 cells [2]; replicate 2) | Invasion content (%) (4T1 cells [2]; replicate 3) | Pulmonary CD11b+Gr1+ BMDCs (%) [3, 6] | Pulmonary CD11b+Gr1+ BMDCs (%) ([3]; same, mouse 2 of 5) | Pulmonary CD11b+Gr1+ BMDCs (%) ([3]; same, mouse 3 of 5) | Pulmonary CD11b+Gr1+ BMDCs (%) ([3]; same, mouse 4 of 5) | Pulmonary CD11b+Gr1+ BMDCs (%) ([3]; same, mouse 5 of 5) | Migration content (%) (4T1 cells [4]) | Size [5]
LGASWHRPDKCCLGYQKRPLPA [Free BS] | 31 | 28 | 25 | 36 | 27 | high metastatic nodule burdens | 100.41% | 88.2% | 97.02% | 31.8% | 39.87% | 35.6% | 41% | 39.4% | 99.141% and 98.012% and 94.753% | 
P-BS: HPMA copolymer-BS conjugate, ~6 BS grafts per polymer (LGASWHRPDKCCLGYQKRPLPA; not fully specified (residues 11, 12); also: about 6 peptides grafted on HPMA copolymer via cysteine-maleimide thioether links) | 15 | 17 | 22 | 19 | 28 |  | 61.3% | 50.16% | 42.1% | 25.1% | 26.4% | 34.2% | 28.9% | 29.8% | 52.3% and 41.02% and 47.1% | 15.7±0.8 nm
P-CM2-Cy3: Cy3-labeled P-CM2 (C(HPMA copolymer)YGGEVSALEKEVSALEKKNSALEKEVSALEKEVSALEK; also: Cy3 label on conjugate, position not given here) |  |  |  |  |  |  |  |  |  |  |  |  |  |  |  | 20.4±0.5 nm
